Source: article PMC8589421, “Impact of Type II LRRK2 inhibitors on signaling and mitophagy” (Biochemical Journal, 2021)

Tested on: phosphorylation of Rab12 (Ser105)
Test: Rab12 phospho-immunoblot in wild-type MEFs
Assay type: cell-based, mouse
Method: Wild-type and homozygous LRRK2 [R1441C] (Jax, stock number: 009346), LRRK2[G2019S] Taconic, (model 13940) and LRRK2 [A2016T] (Jax, stock number: 021828)[7] knock-in MEF cells were isolated from littermate-matched mouse embryos on a C57BL/6J background at day E12.5 as described previously. MEFs were grown in Dulbecco's modified Eagle medium (DMEM GIBCO, #11960-085) containing 10% (by vol) fetal bovine serum (FBS), 2 mM L-glutamine, 100 U/ml penicillin, and […] streptomycin supplemented with non-essential amino acids and 1 mM sodium pyruvate. Human embryonic kidney 293 (HEK293) (#ATCC CRL-1573) and HeLa (#ATCC CCL-2) cells were purchased from American Tissue Culture Collection (ATCC) and cultured in DMEM containing 10% (by vol) FBS, 2 mM L-glutamine, 100 U/ml penicillin, and […] streptomycin. All cells were grown at 37°C, 5% (by vol) CO2 in a humidified atmosphere and regularly tested for mycoplasma contamination.
Inhibitors were dissolved in dimethyl sulfoxide (DMSO) (Sigma, #D2650). The inhibitors were diluted 1000× into cell medium. The equivalent volume of DMSO was added to the minus inhibitor controls. Experiments were performed in six-well plates, 10 cm dishes or 15 cm dishes depending on the amount of cell extract required.
Cells were lysed in an ice-cold lysis buffer containing 50 mM Tris–HCl, pH 7.4, 1% (by vol) Triton X-100, 10% (by vol) glycerol, 150 mM NaCl, 1 mM sodium orthovanadate, 50 mM NaF, 10 mM 2-glycerophosphate, 5 mM sodium pyrophosphate, 1 µg/ml microcystin-LR, and cOmplete EDTA-free protease inhibitor cocktail (Roche, #11836170001). Lysates were incubated on ice for 30 min and clarified by centrifugation at 20 800×g at 4°C for 20 min. Supernatants were quantified by Bradford assay (Bio-Rad Protein Assay Dye Reagent Concentrate #5000006) and samples prepared in 1× lithium dodecyl sulfate sample buffer final concentration (NuPage LDS Sample buffer 4× Invitrogen, #NP0008). When not deployed immediately, lysates were snap-frozen in liquid nitrogen and stored at −80°C until use.
Cell extracts were mixed with a quarter of a volume of NuPage LDS Sample buffer 4× Invitrogen and heated at 95°C for 5 min. […] At the end of electrophoresis, proteins were electrophoretically transferred onto the nitrocellulose membrane (GE Healthcare, Amersham Protran Supported 0.45 µm NC) at 100 V for 90 min on ice in the transfer buffer (48 mM Tris–HCl and 39 mM glycine supplemented with 20% methanol). Transferred membrane was blocked with 5% (w/v) skim milk powder dissolved in TBS-T [20 mM Tris–HCl, pH 7.5, 150 mM NaCl and 0.1% (v/v) Tween 20] at room temperature for 1 h. […]

## Cc1ccc(C(=O)Nc2ccc(CN3CCN(C)CC3)c(C(F)(F)F)c2)cc1C#Cc1cnc2[nH]ncc2c1 [GZD-824]
1 μM, 2 h
  Rab12 phosphorylation level after treatment: almost background levels
1 μM, 24 h
  Rab12 phosphorylation over 24 h time course: remained suppressed
1 μM, Figure 2C
  time to 50% reduction of Rab12 phosphorylation: ~10 min
Mus musculus, 2 h, Figure 2A, read-out: IC50 inhibition of Rab12 phosphorylation
  IC50: ~300 nM
